# From publication PMC11528023, “Transport mechanism and structural pharmacology of human urate transporter URAT1” (Cell Research, 2024)
# Changes are numbered by the printed parent chain.
# Legend:
# URAT1WT [1] = target: T1, URAT1WT (Homo sapiens, UniProt Q96S37); assay: Anion preloading 14C-urate uptake assay, WT URAT1; type: cell-based; details: Fig. 4e, f, NaCl uptake buffer
# T1 construct: expressed in transfected cells; host or cells: HEK293 cells (ATCC, CRL-3216), transient transfection with Lipofectamine 3000
# T1 sequence (Q96S37 1-553): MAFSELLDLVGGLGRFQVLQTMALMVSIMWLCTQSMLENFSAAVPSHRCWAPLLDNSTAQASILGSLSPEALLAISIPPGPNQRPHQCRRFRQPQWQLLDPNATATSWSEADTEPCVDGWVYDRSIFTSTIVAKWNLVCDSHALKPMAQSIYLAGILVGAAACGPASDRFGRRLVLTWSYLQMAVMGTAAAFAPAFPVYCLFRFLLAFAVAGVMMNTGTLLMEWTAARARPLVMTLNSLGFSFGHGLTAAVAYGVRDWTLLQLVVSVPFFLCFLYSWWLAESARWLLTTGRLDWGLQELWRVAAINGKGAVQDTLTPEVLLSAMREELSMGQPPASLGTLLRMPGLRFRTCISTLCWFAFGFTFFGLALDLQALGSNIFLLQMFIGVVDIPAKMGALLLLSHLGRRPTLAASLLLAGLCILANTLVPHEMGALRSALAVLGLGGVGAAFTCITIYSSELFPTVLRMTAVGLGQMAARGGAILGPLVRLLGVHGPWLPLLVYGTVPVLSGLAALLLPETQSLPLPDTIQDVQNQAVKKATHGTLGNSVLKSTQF
# URAT1 Q473E = target: T2, URAT1 Q473E (Homo sapiens, UniProt Q96S37, Q473E); assay: Anion preloading 14C-urate uptake assay, URAT1 Q473E; type: cell-based; details: Fig. 4e, f; Site 1 mutant
# T2 construct: expressed in transfected cells; host or cells: HEK293 cells (ATCC, CRL-3216), transient transfection
# T2 sequence (Q96S37 1-553 Q473E): T1 sequence (Q96S37 1-553) with Q473E
# URAT1EM = target: T3, URAT1EM (Homo sapiens, UniProt Q96S37, A280P/A304R/A323S/A335R/D313K/DEL311-312/DEL60-62/G295A/G309E/G331A/G338L/G65T/I63V/INS307H/L287I/L292P/L321M/L328V/L337V/L341F/L64S/M324V/M330S/M343V/P317I/P333E/Q332K/R291K/R301K/R325K/R342C/S329A/T288I/T289K/T314N/T339D/W294Q/W300R); assay: 14C-urate uptake in HEK293 cells expressing URAT1EM (cryo-EM construct); type: cell-based; details: read-out: IC50 for URAT1EM
# T3 construct: human URAT1 (residues 3–553), a (GGGGS)3 linker, and C-terminal DARPinoff7; expressed in transfected cells; host or cells: HEK293 cells (ATCC, CRL-3216), transient transfection
# T3 sequence (Q96S37 with tags, fused parts or gaps DEL60-62/I63V/L64S/G65T/A280P/L287I/T288I/T289K/R291K/L292P/W294Q/G295A/W300R/R301K/A304R/INS307H/G309E/DEL311-312/D313K/T314N/P317I/L321M/A323S/M324V/R325K/L328V/S329A/M330S/G331A/Q332K/P333E/A335R/L337V/G338L/T339D/L341F/R342C/M343V): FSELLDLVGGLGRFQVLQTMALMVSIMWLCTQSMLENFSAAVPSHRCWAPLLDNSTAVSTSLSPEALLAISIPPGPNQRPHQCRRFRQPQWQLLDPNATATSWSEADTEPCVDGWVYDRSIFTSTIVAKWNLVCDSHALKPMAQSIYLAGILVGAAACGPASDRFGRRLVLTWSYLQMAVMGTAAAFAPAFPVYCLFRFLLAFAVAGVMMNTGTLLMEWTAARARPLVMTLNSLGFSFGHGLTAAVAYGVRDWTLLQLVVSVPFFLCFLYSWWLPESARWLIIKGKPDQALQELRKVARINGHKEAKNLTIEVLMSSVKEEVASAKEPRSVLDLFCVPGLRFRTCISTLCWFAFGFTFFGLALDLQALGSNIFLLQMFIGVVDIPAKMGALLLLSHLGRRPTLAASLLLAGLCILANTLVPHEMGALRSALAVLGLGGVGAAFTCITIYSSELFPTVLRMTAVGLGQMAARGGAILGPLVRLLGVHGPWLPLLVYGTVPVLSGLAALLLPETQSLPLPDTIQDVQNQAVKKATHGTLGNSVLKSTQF
# Method: (§1) Data are shown as mean ± SD; n = 3 biological replicates. In a, b, uptake buffer: 20 mM HEPES pH 7.4, 125 mM sodium gluconate, 4.8 mM potassium gluconate, 1.2 mM monobasic potassium phosphate, 1.2 mM magnesium sulfate, 1.3 mM calcium gluconate, and 5.6 mM glucose. c Cryo-EM density maps of URAT1 in the apo and substrate-bound states. […] Putative lipid densities are in light cyan. d Cryo-EM density maps of URAT1 in the drug-bound states. […] Putative lipid densities are in light cyan. e Diagram of URAT1 topology. ECD, extracellular domain. f Structure of URAT1 in the apo state. g Slice view of URAT1 in the apo state, showing the central cavity and opening to the intracellular side.
# (§2) Human embryonic kidney (HEK) 293 cells (ATCC, CRL-3216) were seeded onto poly(D-lysine)-coated 96-well plates at a density of 0.3 × 10^5 cells per well and cultured at 37 °C until reaching approximately 70%–80% confluence. The cells were transiently transfected with plasmids encoding the URAT1 WT or mutants using Lipofectamine 3000 (Invitrogen, L3000001), following the manufacturer’s protocol. The transfected cells were cultured at 37 °C for 12 h. Following this, 10 mM sodium butyrate was added, and the cells were further incubated at 30 °C for an additional 24 h. […]
# URAT1WT [2] = target: T1, URAT1WT; assay: 14C-urate uptake inhibition in HEK293 cells expressing WT URAT1; type: cell-based
# Method: as §1, §2
# [3] = target: human URAT1 tagged with MBP and DARPin, with part of the intracellular loop (residues 280-343) replaced by OAT4 residues 277-339 (human) (UniProt Q96S37); assay: cryo-EM particle images; purified protein at the high concentration used to prepare cryo-EM grids; particles seen on the grids (Supplementary Fig. S1b)
# URAT1 = target: T4, URAT1 (Homo sapiens, UniProt Q96S37); assay: Effect of reducing anion gradients on 14C-urate uptake; type: cell-based; details: 125 mM sodium phosphate in place of sodium gluconate in uptake buffer, Fig. S12b
# T4 construct: expressed in transfected cells; host or cells: HEK293 cells (ATCC, CRL-3216), transient transfection with Lipofectamine 3000
# T4 sequence (Q96S37 1-553): T1 sequence (Q96S37 1-553)
# Method: Human embryonic kidney (HEK) 293 cells (ATCC, CRL-3216) were seeded onto poly(D-lysine)-coated 96-well plates at a density of 0.3 × 10^5 cells per well and cultured at 37 °C until reaching approximately 70%–80% confluence. The cells were transiently transfected with plasmids encoding the URAT1 WT or mutants using Lipofectamine 3000 (Invitrogen, L3000001), following the manufacturer’s protocol. The transfected cells were cultured at 37 °C for 12 h. Following this, 10 mM sodium butyrate was added, and the cells were further incubated at 30 °C for an additional 24 h. The medium was aspirated, and the cells were rinsed once with assay buffer (20 mM HEPES pH 7.4, 125 mM sodium gluconate, 4.8 mM potassium gluconate, 1.2 mM monobasic potassium phosphate, 1.2 mM magnesium sulfate, 1.3 mM calcium gluconate, and 5.6 mM glucose) and then incubated with 400 µM urate consisted of 80 µM ^14C-radiolabeled (50–60 mCi/mmol, 0.5 mCi/mL, American Radiolabeled Chemicals, Inc.) and 320 µM non-radiolabeled in assay buffer at 37 °C for 20 min. In some experiments, 125 mM sodium gluconate was replaced by sodium chloride, sulfate, or phosphate. […] The cells were then lysed in 0.1 M NaOH, and the lysed samples were added to scintillation liquid to measure radioactivity using a PerkinElmer Microbeta2 counter. […]
compound,measurement,setting,value
"O=C(O)c1cnccn1 [Pyrazinoate, pyrazinoate]","Potentiation in urate uptake by anion preloading (fold change), WT",URAT1WT [1],3.5 fold
same,"Potentiation in urate uptake by anion preloading (fold change), Q473E",URAT1 Q473E,1.2 fold
CC(C)(Sc1ccncc1-c1ccc(C#N)c2ccccc12)C(=O)O [verinurad],IC50,URAT1EM,63 nM
same,IC50,URAT1WT [2],53 nM
"human URAT1 tagged with MBP and DARPin, with part of the intracellular loop (residues 280-343) replaced by OAT4 residues 277-339 (from UniProt Q96S37 1-279; Q9NSA0 277-339; Q96S37 344-553)",stoichiometry N,[3],2
phosphate,Impact on URAT1 function (14C-urate uptake),URAT1,minimal impact
